# According to US8445636B2, “Antimicrobial and anticancer lipopeptides” (Yeda Research & Development Co. Ltd., priority 2003, dated 2013):
# Read-outs that look alike come from different tables or passages of the source. Non-standard residues stand in square brackets, D forms with d. Residues, ends and D or L forms follow the SMILES beside them. *: point of attachment. Palmitoyl = CCCCCCCCCCCCCCCC(=O)*; Myristoyl = CCCCCCCCCCCCCC(=O)*; Lauroyl = CCCCCCCCCCCC(=O)*
# Legend:
# Type in all cases: cell-based
# E. aerogenes ATCC 35029 = conditions: ATCC 35029, pH 7.4
# Summary of the method: (§1)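 Broth microdilution: bacteria at 1×10^6 CFU/ml in LB medium (pH 7.4 unless stated; pH 5.5 also tested) mixed 1:1 with 2-fold serial lipopeptide dilutions in water, 18-20 h at 37° C. Growth read at 600 nm; MIC taken as lowest concentration giving 100% growth inhibition.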
# E. coli ATCC 35218 = conditions: ATCC 35218, pH 7.4
# Summary of the method: as §1
# [1] = test system: Pseudomonas aeruginosa ATCC 27853
# Summary of the method: as §1
# [2] = test system: Staphylococcus aureus ATCC 6538P
# Summary of the method: as §1
# [3] = test system: Candida albicans ATCC 10231; assay: microbe, parasite or virus in culture
# Summary of the method: (§2)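 Broth microdilution in RPMI 1640/0.165 M MOPS, 1×10^4 CFU/ml inoculum, 2-fold serial lipopeptide dilutions in water, pH 7.4 unless stated (pH 5.5 alternative). Incubated 24–48 h at 35 °C with agitation; growth read at A620. MIC = lowest concentration giving 100% growth inhibition.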
# [4] = test system: Cryptococcus neoformans ATCC MYA-422; assay: microbe, parasite or virus in culture; conditions: ATCC MYA-422, pH 7.4
# [5] = test system: Aspergillus fumigatus ATCC 26430; assay: microbe, parasite or virus in culture
# [6] = Cytotoxicity, XTT viability, non-cancer cells; conditions: mouse, non-cancer cell line, 24 h incubation, read-out: LC50, 3T3
# Experimental: Prostate cancer cell lines (CL1 and 22RV1; ATCC, USA) were grown in RPMI-1640 supplemented with 10% FCS (Biological Industries, Beit Haemek, Israel). N1H-3T3 mouse fibroblast cell line (ATCC, USA) was grown in DMEM supplemented with 10% bovine serum. To test cytotoxicity against the cancer cells, aliquots of medium containing 1×10^4 cells were distributed into a 96-well plate (Falcon). After one day, the media were replaced with 90 μl of fresh media and 10 μl of a solution containing different concentrations of the peptides. The plate was then incubated for 24 h before adding to each well 50 μl of XTT reaction solution (Biological Industries, Beit Haemek, Israel); viability was determined as previously described (Papo et al., (2003) J. Biol. Chem. 278:21018-23). The LC50 (concentration at which 50% of the cells die) for each peptide was obtained from the dose-dependent cell viability curves.
# E. coli D21 = test system: E. coli D21
# M. laleus = conditions: Table 3, short lipopeptides; pH 7.4
# Summary of the method: as §1
# [7] = test system: Acinetobacter baumannii ATCC 19606
# Summary of the method: as §1
# [8] = test system: Escherichia coli ATCC 25922
# Summary of the method: as §1
# [9] = test system: Cryptococcus neoformans ATCC 66031; assay: microbe, parasite or virus in culture
# Summary of the method: as §2
compound,measurement,setting,value
"CCCCCCCCCCCCCC(=O)N[C@H](CC(C)C)C(=O)N[C@@H](CCCCN)C(=O)N[C@@H](CCCCN)C(=O)N[C@H](CC(C)C)C(=O)N[C@H](CC(C)C)C(=O)N[C@@H](CCCCN)C(=O)N[C@@H](CCCCN)C(=O)N[C@H](CC(C)C)C(=O)N[C@H](CC(C)C)C(=O)N[C@@H](CCCCN)C(=O)N[C@@H](CCCCN)C(=O)N[C@H](CC(C)C)C(N)=O [lipopeptide 23, (CH3-(CH2)12-CO-)-D-Leu-Lys-Lys-D-Leu-D-Leu-Lys-Lys-D-Leu-D-Leu-Lys-Lys-D-Leu-NH2] (Myristoyl-[dL]KK[dL][dL]KK[dL][dL]KK[dL]-NH2)","Minimal Inhibitory Concentration, E. aerogenes ATCC 35029",E. aerogenes ATCC 35029,>50 µM
same,"Minimal Inhibitory Concentration, E. coli ATCC 35218",E. coli ATCC 35218,50 µM
same,"Minimal Inhibitory Concentration, P. aeruginosa ATCC 27853","[1]; ATCC 27853, pH 7.4",50 µM
same,"Minimal Inhibitory Concentration, S. aureus ATCC 6538P","[2]; ATCC 6538, pH 7.4",50 µM
same,"Minimal Inhibitory Concentration, C. albicans ATCC 10231","[3]; ATCC 10231, pH 7.4",1.56 µM
same,"Minimal Inhibitory Concentration, C. neoformans ATCC MYA-422",[4],0.78 µM
same,"Minimal Inhibitory Concentration, A. fumigatus ATCC 26430","[5]; ATCC 26430, pH 7.4",1.56 µM
same,CC50 at 24 h,[6],50 µM
"CCCCCCCCCCCCCCCC(=O)N[C@@H](CCCCN)C(=O)NCC(=O)NCC(=O)N[C@H](CCCCN)C(N)=O [PA-KGGK, Palmitoyl-Lys-Gly-Gly-D-Lys-NH2] (Palmitoyl-KGG[dK]-NH2)","Minimal Inhibitory Concentration, E. coli-D21","E. coli D21; D21, pH 7.4",25 µM
same,"Minimal Inhibitory Concentration, M. laleus",M. laleus,3.12 µM
same,"Minimal Inhibitory Concentration, P. aeruginosa ATCC 27853","[1]; ATCC 27853, pH 7.4",12.5 µM
same,"Minimal Inhibitory Concentration, S. aureus ATCC 6538P","[2]; ATCC 6538, pH 7.4",50 µM
same,MIC,"[3]; ATCC 10231, pH 7.4, read-out: Minimal Inhibitory Concentration, Candida Albicans (ATCC 10231)",12.5 µM
same,MIC,"[4]; read-out: Minimal Inhibitory Concentration, Cyrptococcus neoformans (ATCC MYA-422)",1.56 µM
same,MIC,"[5]; ATCC 26430, pH 7.4, read-out: Minimal Inhibitory Concentration, Aspergillus Fomigatus (ATCC 26430)",6.25 µM
"CCCCCCCCCCCC(=O)N[C@H](CC(C)C)C(=O)N[C@@H](CCCCN)C(=O)N[C@@H](CCCCN)C(=O)N[C@H](CC(C)C)C(=O)N[C@H](CC(C)C)C(=O)N[C@@H](CCCCN)C(=O)N[C@@H](CCCCN)C(=O)N[C@H](CC(C)C)C(=O)N[C@H](CC(C)C)C(=O)N[C@@H](CCCCN)C(=O)N[C@@H](CCCCN)C(=O)N[C@H](CC(C)C)C(N)=O [lipopeptide 22, (CH3-(CH2)10-CO-)-D-Leu-Lys-Lys-D-Leu-D-Leu-Lys-Lys-D-Leu-D-Leu-Lys-Lys-D-Leu-NH2] (Lauroyl-[dL]KK[dL][dL]KK[dL][dL]KK[dL]-NH2)","Minimal inhibitory concentrations, E. Coli D21","E. coli D21; D21, pH 5.5",25 µM
same,"Minimal inhibitory concentrations, E. Coli D21","E. coli D21; D21, pH 7.4",25 µM
same,"Minimal inhibitory concentrations, A. baumannii ATCC 19606","[7]; ATCC 19606, pH 5.5",25 µM
same,"Minimal inhibitory concentrations, A. baumannii ATCC 19606","[7]; ATCC 19606, pH 7.4",25 µM
same,"Minimal Inhibitory Concentration, E. aerogenes ATCC 35029",E. aerogenes ATCC 35029,50 µM
same,"Minimal Inhibitory Concentration, E. coli ATCC 35218",E. coli ATCC 35218,25 µM
same,"Minimal inhibitory concentrations, E. Coli ATCC 25922","[8]; ATCC 25922, pH 5.5",50 µM
same,"Minimal inhibitory concentrations, E. Coli ATCC 25922","[8]; ATCC 25922, pH 7.4",75 µM
same,"Minimal inhibitory concentrations, P. Aeruginosa ATCC 27853","[1]; ATCC 27853, pH 5.5",12.5 µM
same,"Minimal Inhibitory Concentration, P. aeruginosa ATCC 27853","[1]; ATCC 27853, pH 7.4",25 µM
same,"Minimal inhibitory concentrations, P. Aeruginosa ATCC 27853","[1]; ATCC 27853, pH 7.4",25 µM
same,"Minimal inhibitory concentrations, S. aureus II ATCC 6538P","[2]; ATCC 6538, pH 5.5",>100 µM
same,"Minimal Inhibitory Concentration, S. aureus ATCC 6538P","[2]; ATCC 6538, pH 7.4",12.5 µM
same,"Minimal inhibitory concentrations, S. aureus II ATCC 6538P","[2]; ATCC 6538, pH 7.4",3.125 µM
same,MIC,"[3]; ATCC 10231, pH 5.5, read-out: Minimal inhibitory concentrations, C. Albicans With serum",>100 µM
same,MIC,"[3]; ATCC 10231, pH 5.5, read-out: Minimal inhibitory concentrations, C. Albicans Without serum",100 µM
same,"Minimal Inhibitory Concentration, C. albicans ATCC 10231","[3]; ATCC 10231, pH 7.4",12.5 µM
same,MIC,"[3]; ATCC 10231, pH 7.4, read-out: Minimal inhibitory concentrations, C. Albicans With serum",100 µM
same,MIC,"[3]; ATCC 10231, pH 7.4, read-out: Minimal inhibitory concentrations, C. Albicans Without serum",3.125 µM
same,MIC,"[9]; ATCC 66031, pH 5.5, read-out: Minimal inhibitory concentrations, C. Neofor. With serum",1.56 µM
same,MIC,"[9]; ATCC 66031, pH 5.5, read-out: Minimal inhibitory concentrations, C. Neofor. Without serum",<0.78 µM
same,MIC,"[9]; ATCC 66031, pH 7.4, read-out: Minimal inhibitory concentrations, C. Neofor. With serum",<0.78 µM
same,MIC,"[9]; ATCC 66031, pH 7.4, read-out: Minimal inhibitory concentrations, C. Neofor. Without serum",<0.78 µM
same,"Minimal Inhibitory Concentration, C. neoformans ATCC MYA-422",[4],0.78 µM
same,MIC,"[5]; ATCC 26430, pH 5.5, read-out: Minimal inhibitory concentrations, A. Fumig. With serum",100 µM
same,MIC,"[5]; ATCC 26430, pH 5.5, read-out: Minimal inhibitory concentrations, A. Fumig. Without serum",75 µM
same,"Minimal Inhibitory Concentration, A. fumigatus ATCC 26430","[5]; ATCC 26430, pH 7.4",6.25 µM
same,MIC,"[5]; ATCC 26430, pH 7.4, read-out: Minimal inhibitory concentrations, A. Fumig. With serum",50 µM
same,MIC,"[5]; ATCC 26430, pH 7.4, read-out: Minimal inhibitory concentrations, A. Fumig. Without serum",12.5 µM
same,CC50 at 24 h,[6],50 µM
